The experiment deals with T1, recombinant IRAK-4 kinase (Homo sapiens, UniProt Q9NWZ3).
T1 construct: purchased Millipore, USA
T1 sequence (Q9NWZ3 1-460): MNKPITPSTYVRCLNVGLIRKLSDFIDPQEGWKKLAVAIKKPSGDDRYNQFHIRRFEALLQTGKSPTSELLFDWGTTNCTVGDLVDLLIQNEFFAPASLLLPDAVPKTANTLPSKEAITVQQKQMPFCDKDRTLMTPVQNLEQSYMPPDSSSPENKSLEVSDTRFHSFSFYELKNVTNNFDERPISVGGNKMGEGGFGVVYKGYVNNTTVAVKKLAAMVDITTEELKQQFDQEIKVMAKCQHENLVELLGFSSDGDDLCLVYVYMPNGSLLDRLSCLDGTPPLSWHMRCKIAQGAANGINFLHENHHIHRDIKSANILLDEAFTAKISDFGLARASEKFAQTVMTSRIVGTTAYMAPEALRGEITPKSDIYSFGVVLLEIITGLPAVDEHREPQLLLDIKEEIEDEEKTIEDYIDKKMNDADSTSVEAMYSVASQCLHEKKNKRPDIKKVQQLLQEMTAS
Kind of experiment: IRAK-4 Biochemical Assay (TR-FRET). The following applies: 30 min pre-incubation, 100 nM Biotin Histone H3, 20 μM ATP, read-out: IC50 values for IRAK4 activity. The procedure:
Compounds were tested for their potential to inhibit IRAK-4 enzyme in a TR-FRET assay using recombinant IRAK-4 kinase from Millipore, USA. The assay buffer was 50 mM Tris-HCl pH 7.5, 20 mM MgCl2, 1 mM EGTA, 2 mM DTT, 3 mM MnCl2 and 0.01% Tween 20.5 ng of IRAK-4 kinase was used for the assay. After pre-incubation of enzyme with test compound for 30 minutes at room temperature, a substrate mixture containing 100 nM Biotin Histone H3 (Millipore, USA) and 20 μM ATP (Sigma, USA) was added and the reaction was incubated for 30 min. Post incubation, the reaction was stopped by the addition of stop mix containing 40 mM EDTA, 1 nM of Europium-Anti-Phospho-Histone H3 (Ser10) antibody (Perkin Elmer, USA) and 20 nM SureLight Allophycocyanin-Streptavidin (Perkin Elmer, USA). The fluorescence emission at 615 nm and 665 nm were measured at an excitation of 340 nm and the percent inhibition was estimated from the ratio of the fluorescence intensities [(F665/F615)×10000]. The compounds were initially screened at 1 μM and 10 μM concentrations and potent compounds (>50% inhibition at 1 μM) were taken for dose response studies. The IC50 values were estimated by fitting the dose-response data to sigmoidal dose response (variable slope), curve fitting program using Graphpad Prism software Version 6.01.
On the technique in general: TR-FRET usually uses a lanthanide donor and a delayed reading to cut background.

Counter-ions that a name gives are not always drawn.

In general, IC50 refers to the concentration needed to halve the response being measured.

As for `Cn1cc2cc(NC(=O)c3coc(-c4ccnc(N)c4)n3)c(N3CCC(CO)CC3)cc2n1` [Example 100, 2-(2-aminopyridin-4-yl)-N-(6-(4-(hydroxymethyl)piperidin-1-yl)-2-methyl-2H-indazol-5-yl)oxazole-4-carboxamide hydrochloride], the half-inhibitory concentration (IC50) is under 50 nM.

In the case of `Cc1cc(-c2nc(C(=O)Nc3cc4cn(C)nc4cc3N3CCC(O)CC3)co2)cc(C)n1` [Example 126, 2-(2,6-dimethylpyridin-4-yl)-N-(6-(4-hydroxypiperidin-1-yl)-2-methyl-2H-indazol-5-yl) oxazole-4-carboxamide], the concentration for half-maximal inhibition (IC50) was under 50 nM.

Turning to `Cn1cc(-c2cccc(C(=O)Nc3cc4cn(C)nc4cc3N3CCCCC3)n2)cn1` [Example 19, 6-(1-methyl-1H-pyrazol-4-yl)-N-(2-methyl-6-(piperidin-1-yl)-2H-indazol-5-yl)picolinamide], the half-maximal inhibitory concentration (IC50) was under 50 nM.

In the case of `Cc1cc(-c2ccc(C(=O)Nc3cc4cn(C)nc4cc3N3CCCCC3)o2)ccn1` [Example 66, N-(2-methyl-6-(piperidin-1-yl)-2H-indazol-5-yl)-5-(2-methylpyridin-4-yl)furan-2-carboxamide], the IC50 is under 50 nM.

On to `Cn1cc2cc(NC(=O)c3cccc(N4CC[C@H](N)C4)n3)c(N3CCCCC3)cc2n1` [Example 33, (S)-6-(3-aminopyrrolidin-1-yl)-N-(2-methyl-6-(piperidin-1-yl)-2H-indazol-5-yl)picolinamide 2,2,2-trifluoroacetate], for which the IC50 was in the range of 50 to 100 nM.

`Cc1cc(-c2nc(C(=O)Nc3cc4cn(C5CCCC5)nc4cc3C3CC3)co2)ccn1` [Example 6, N-(2-cyclopentyl-6-cyclopropyl-2H-indazol-5-yl)-2-(2-methylpyridin-4-yl) oxazole-4-carboxamide]: the IC50 was under 50 nM.

As to `Cn1cc2cc(NC(=O)c3cccc(-c4cn[nH]c4)n3)c(N3CCCCC3)cc2n1` [Example 1, N-(2-methyl-6-(piperidin-1-yl)-2H-indazol-5-yl)-6-(1H-pyrazol-4-yl) picolinamide], the IC50 is under 50 nM.

Regarding `Cc1cc(-c2ccc(C(=O)Nc3cc4cn(C)nc4cc3N3CCCC(O)C3)o2)ccn1` (centres unmarked) [Example 70, N-(6-(3-hydroxypiperidin-1-yl)-2-methyl-2H-indazol-5-yl)-5-(2-methylpyridin-4-yl)furan-2-carboxamide], the IC50 is under 50 nM.

In the case of `Cc1cc(-c2nc(C(=O)Nc3cc4cn(C)nc4cc3N3CCCCCC3)co2)ccn1` [Example 71, N-(6-(azepan-1-yl)-2-methyl-2H-indazol-5-yl)-2-(2-methylpyridin-4-yl)oxazole-4-carboxamide], the IC50 is under 50 nM.

Turning to `C[C@H](O)Cn1cc(-c2cccc(C(=O)Nc3cc4cnn(C)c4cc3N3CCC(CO)CC3)n2)cn1` [Example 95, (S)—N-(6-(4-(hydroxymethyl)piperidin-1-yl)-1-methyl-1H-indazol-5-yl)-6-(1-(2-hydroxypropyl)-1H-pyrazol-4-yl)picolinamide], the IC50 was over 100 nM.

For `Cn1cc(-c2cccc(C(=O)Nc3cc4cnn(C5CCCC5)c4cc3C3CC3)n2)cn1` [Example 17, N-(1-cyclopentyl-6-cyclopropyl-1H-indazol-5-yl)-6-(1-methyl-1H-pyrazol-4-yl)picolinamide], the half-maximal inhibitory concentration (IC50) was over 100 nM.

Regarding `C[C@H](O)Cn1cc(-c2nc(C(=O)Nc3cc4cnn(C)c4cc3C3CC3)co2)cn1` [Example 53, (S)—N-(6-cyclopropyl-1-methyl-1H-indazol-5-yl)-2-(1-(2-hydroxypropyl)-1H-pyrazol-4-yl)oxazole-4-carboxamide], the half-inhibitory concentration (IC50) is over 100 nM.

`Cn1cc2cc(NC(=O)c3coc(-c4ccnc(N)c4)n3)c(N3CC[C@@H](O)C3)cc2n1` [Example 105, (R)-2-(2-aminopyridin-4-yl)-N-(6-(3-hydroxypyrrolidin-1-yl)-2-methyl-2H-indazol-5-yl)oxazole-4-carboxamide hydrochloride]: the IC50 is under 50 nM.

`Cc1cc(-c2nc(C(=O)Nc3cc4cnn(C)c4cc3N3CCC(O)CC3)co2)ccn1` [Example 77, N-(6-(4-hydroxypiperidin-1-yl)-1-methyl-1H-indazol-5-yl)-2-(2-methylpyridin-4-yl)oxazole-4-carboxamide]: the IC50 is under 50 nM.

In the case of `COCCn1ncc2cc(NC(=O)c3coc(-c4ccnc(C)c4)n3)c(N3CCC(N)CC3)cc21` [Example 108, N-(6-(4-aminopiperidin-1-yl)-1-(2-methoxyethyl)-1H-indazol-5-yl)-2-(2-methylpyridin-4-yl)oxazole-4-carboxamide hydrochloride], the IC50 was under 50 nM.

On to `Cn1cc2cc(NC(=O)c3cccc(-c4cccnc4F)n3)c(N3CCCCC3)cc2n1` [Example 14, 2′-fluoro-N-(2-methyl-6-(piperidin-1-yl)-2H-indazol-5-yl)-[2,3′-bipyridine]-6-carboxamide], for which the half-maximal inhibitory concentration (IC50) was under 50 nM.

Consider `Cc1cc(-c2nc(C(=O)Nc3cc4cn(C5CCCC5)nc4cc3C#N)co2)ccn1` [Example 5, N-(6-cyano-2-cyclopentyl-2H-indazol-5-yl)-2-(2-methylpyridin-4-yl) oxazole-4-carboxamide], for which the IC50 is under 50 nM.

Regarding `Cc1cc(-c2nc(C(=O)Nc3cc4cn(C)nc4cc3N3CCCC(F)C3)co2)ccn1` (centres unmarked) [Example 79, N-(6-(3-fluoropiperidin-1-yl)-2-methyl-2H-indazol-5-yl)-2-(2-methylpyridin-4-yl)oxazole-4-carboxamide], the concentration for half-maximal inhibition (IC50) was under 50 nM.

For `Cn1ncc2cc(NC(=O)c3coc(-c4ccnc(O)c4)n3)c(N3CCC(O)CC3)cc21` [Example 113, N-(6-(4-hydroxypiperidin-1-yl)-1-methyl-1H-indazol-5-yl)-2-(2-hydroxypyridin-4-yl)oxazole-4-carboxamide], the IC50 was under 50 nM.

For the compound `Cc1ncccc1-c1nc(C(=O)Nc2cc3cn(C4CCCC4)nc3cc2C2CC2)co1` [Example 26, N-(2-cyclopentyl-6-cyclopropyl-2H-indazol-5-yl)-2-(2-methylpyridin-3-yl)oxazole-4-carboxamide], the half-maximal inhibitory concentration (IC50) was under 50 nM.

With `Cn1cc2cc(NC(=O)c3cccc(-c4cn[nH]c4)n3)c(C3CCCCC3)cc2n1` [Example 13, N-(6-cyclohexyl-2-methyl-2H-indazol-5-yl)-6-(1H-pyrazol-4-yl)picolinamide hydrochloride], the IC50 was under 50 nM.

With `Cn1cc2cc(NC(=O)c3coc(-c4cccnc4O)n3)c(N3CCCCC3)cc2n1` [Example 32, 2-(2-hydroxypyridin-3-yl)-N-(2-methyl-6-(piperidin-1-yl)-2H-indazol-5-yl)oxazole-4-carboxamide], the IC50 was under 50 nM.

In the case of `Cc1cc(-c2nc(C(=O)Nc3cc4cn(C)nc4cc3N3CC[C@H](O)C3)co2)ccn1` [Example 64, (S)—N-(6-(3-hydroxypyrrolidin-1-yl)-2-methyl-2H-indazol-5-yl)-2-(2-methylpyridin-4-yl)oxazole-4-carboxamide], the IC50 is under 50 nM.

As to `Cc1nn(C)c2cc(N3CCC(CO)CC3)c(NC(=O)c3coc(-c4ccnc(N)c4)n3)cc12` [Example 112, 2-(2-aminopyridin-4-yl)-N-(6-(4-(hydroxymethyl)piperidin-1-yl)-1,3-dimethyl-1H-indazol-5-yl)oxazole-4-carboxamide], the IC50 is under 50 nM.

`COCCn1cc2cc(NC(=O)c3coc(-c4ccnc(C)c4)n3)c(N3CCC(CO)CC3)cc2n1` [Example 96, N-(6-(4-(hydroxymethyl)piperidin-1-yl)-2-(2-methoxyethyl)-2H-indazol-5-yl)-2-(2-methylpyridin-4-yl)oxazole-4-carboxamide]: the IC50 was under 50 nM.

`Cc1cc(-c2nc(C(=O)Nc3cc4cn(C)nc4cc3N3CC(O)C3)co2)ccn1` [Example 61, N-(6-(3-hydroxyazetidin-1-yl)-2-methyl-2H-indazol-5-yl)-2-(2-methylpyridin-4-yl)oxazole-4-carboxamide]: the IC50 was under 50 nM.

For the compound `Cc1ccc(C(=O)Nc2cc3cn(C)nc3cc2N2CCCCC2)nc1-c1cnn(C)c1` [Example 30, 5-methyl-6-(1-methyl-1H-pyrazol-4-yl)-N-(2-methyl-6-(piperidin-1-yl)-2H-indazol-5-yl)picolinamide], the IC50 was under 50 nM.

Take `Cc1cc(-c2nc(C(=O)Nc3cc4cnn(C)c4cc3N3CCCCC3)co2)ccn1` [Example 3, N-(1-methyl-6-(piperidin-1-yl)-1H-indazol-5-yl)-2-(2-methylpyridin-4-yl) oxazole-4-carboxamide]: the IC50 is under 50 nM.

As for `Cn1cc2cc(NC(=O)c3coc(N4CC[C@H](N)C4)n3)c(C3CC3)cc2n1` [Example 54, (S)-2-(3-aminopyrrolidin-1-yl)-N-(6-cyclopropyl-2-methyl-2H-indazol-5-yl)oxazole-4-carboxamide], the IC50 was over 100 nM.
